Consider eight molecules from patent US20160120979A1, “METHOD OF APPLYING A COMPOSITION AND PHARMACEUTICAL COMPOSITION WITH A REGIMEN OF ADMINISTERING IT” (priority 2013, published 2016).

The subject of one test is Acinetobacter. The test is described as follows: Experiment 12: replication on antibiotic agar after pulsed 400 nm irradiation. The class given is cell-based. As to conditions: 24 hours incubation; for C: Acinetobacter (no irradiation), replication: antibiotic 10 mg/l in MH agar; for D Acinetobacter (irradiation), replication: antibiotic 10 mg/l, 400 nm LED pulses 0.02 ms, 1 kHz, 10 minutes. The protocol:
(§1) 15′000′000 multi-resistant bacteriae (0.050 ml of a McFarland of 1) were put on 40 mm diameter petri dishes. The petri dishes comprised MH agar with or without antibiotic.
(§2) […]. The LED power during 0.02 ms was measured to be 0.63 W on a Thorlabs power sensor with a surface area of 2.2×2.2 mm representing a power of 13 mW/cm^2.

Another test concerns Pseudomonas aeruginosa. The description is as above. The class given is cell-based. As to conditions: 24 hours incubation; for A: Pseudomonas aeruginosa (no irradiation), replication: antibiotic 10 mg/l in MH agar; for B: Pseudomonas aeruginosa (irradiation), replication: antibiotic 10 mg/l, 400 nm LED pulses 0.02 ms, 1 kHz, 10 minutes. The protocol: as §1, §2
The test system of test [1] is Staphylococcus aureus MU500. Described as above. The class given is cell-based. Conditions: 24 hours incubation; for E: Staphylococcus aureus MU500 (no irradiation), replication: antibiotic 10 mg/l in MH agar; for F: Staphylococcus aureus MU500 (irradiation), replication: antibiotic 10 mg/l, 400 nm LED pulses 0.02 ms, 1 kHz, 10 minutes. The protocol: as §1
The LED power during 0.02 ms was measured to be 0.63 W on a Thorlabs power sensor with a surface area of 2.2×2.2 mm representing a power of 13 mW/cm^2.

Test [2] relates to multi-drug resistant MU 50 bacterial cells. Briefly: Experiment 1: killing of MU50 by antibiotic with/without riboflavin and UVA 365 nm (CFU). Type of test: cell-based, Staphylococcus aureus. The protocol:
The first experiment compares the effect of two antibiotics incubated with multi-drug resistant MU 50 bacterial cells accompanied by exposure to UVA light at 365 nm. […] Furthermore, the antibiotics were administered in the presence and absence of riboflavin, to test the free radical effect of riboflavin.
After addition of the antibiotic and optionally riboflavin to the bacterial samples they were incubated for 1 or for 30 minutes in Experiment 1A and for 30 minutes in Experiment 1B prior to the UV-A exposure at 365 nm with 9 mW/cm^2 for 10 minutes.
In Experiment 1B the added antibiotic was tobramycin at a concentration of 135 μg/ml.

The mark [3] stands for this setting: tobramycin 135 μg/ml, incubation 30 min, no riboflavin, with UVA 365 nm 9 mW/cm^2 10 min.
[4] abbreviates: tobramycin 135 μg/ml, incubation 30 min, with riboflavin, with UVA 365 nm 9 mW/cm^2 10 min.
Where [5] appears, read: ofloxacin 240 μg/ml, incubation 1 min, no riboflavin, no UVA.
Where [6] appears, read: ofloxacin 240 μg/ml, incubation 1 min, no riboflavin, with UVA 365 nm 9 mW/cm^2 10 min.
[7] abbreviates: ofloxacin 240 μg/ml, incubation 1 min, with riboflavin, no UVA.
Setting [8] is: ofloxacin 240 μg/ml, incubation 1 min, with riboflavin, with UVA 365 nm 9 mW/cm^2 10 min.
Where [9] appears, read: ofloxacin 240 μg/ml, incubation 30 min, no riboflavin, no UVA.
The mark [10] stands for this setting: ofloxacin 240 μg/ml, incubation 30 min, no riboflavin, with UVA 365 nm 9 mW/cm^2 10 min.
Where [11] appears, read: ofloxacin 240 μg/ml, incubation 30 min, with riboflavin, no UVA.
The mark [12] stands for this setting: ofloxacin 240 μg/ml, incubation 30 min, with riboflavin, with UVA 365 nm 9 mW/cm^2 10 min.

For the molecule `CN(C)c1cc(NC(=O)CNC(C)(C)C)c(O)c2c1C[C@H]1C[C@H]3[C@H](N(C)C)C(O)=C(C(N)=O)C(=O)[C@@]3(O)C(O)=C1C2=O` [Tigecycline], in the test with Acinetobacter, the “C: Acinetobacter (no irradiation), replication” value is given as “R (Bacteria can replicate after the treatment)” and the “D Acinetobacter (irradiation), replication” value (shortened to “D Acinetobacter (irradiation)”) is given as “NR (No replication)”. Besides, in the test on Pseudomonas aeruginosa, the “A: Pseudomonas aeruginosa (no irradiation), replication” value is given as “R (Bacteria can replicate after the treatment)” and the “B: Pseudomonas aeruginosa (irradiation), replication” value (shortened to “B: Pseudomonas aeruginosa”) is “NR (No replication)”. Also, in test [1], the “E: Staphylococcus aureus MU500 (no irradiation), replication” value is on record as “R (Bacteria can replicate after the treatment)” and the “F: Staphylococcus aureus MU500 (irradiation), replication” value (“F: Staphylococcus aureus MU500” for short) was “NR (No replication)”.

As to `CN(C)[C@@H]1C(O)=C(C(N)=O)C(=O)[C@@]2(O)C(O)=C3C(=O)c4c(O)cccc4[C@@](C)(O)[C@H]3[C@H](O)[C@@H]12` [Oxytetracycline], in the test on Acinetobacter, the “C: Acinetobacter (no irradiation), replication” value is listed as “R (Bacteria can replicate after the treatment)” and the “D Acinetobacter (irradiation)” value is “NR (No replication)”. Moreover, in the test on Pseudomonas aeruginosa, the “A: Pseudomonas aeruginosa (no irradiation), replication” value is “R (Bacteria can replicate after the treatment)” and the “B: Pseudomonas aeruginosa” value is given as “NR (No replication)”. Further, in test [1], the “E: Staphylococcus aureus MU500 (no irradiation), replication” value was “R (Bacteria can replicate after the treatment)” and the “F: Staphylococcus aureus MU500” value is given as “NR (No replication)”.

For the molecule `NC[C@H]1O[C@H](O[C@H]2[C@H](O)[C@@H](O[C@H]3O[C@H](CO)[C@@H](O)[C@H](N)[C@H]3O)[C@H](N)C[C@@H]2N)[C@H](N)C[C@@H]1O` [Tobramycin], in test [2] (setting [3]), the CFU first run is on record as 416 CFU, the CFU second run turned out to be 481 CFU, the Killed first run turned out to be 36% and the Killed second run is listed as 25%. Besides, in test [2] (setting [4]), the CFU first run is recorded as 144 CFU, the CFU second run worked out at 159 CFU, the Killed first run was determined as 78% and the Killed second run amounted to 75%. Moreover, in the test on Acinetobacter, the “C: Acinetobacter (no irradiation), replication” value was “R (Bacteria can replicate after the treatment)” and the “D Acinetobacter (irradiation)” value was “R (Bacteria can replicate after the treatment)”. Also, in the test with Pseudomonas aeruginosa, the “A: Pseudomonas aeruginosa (no irradiation), replication” value is recorded as “R (Bacteria can replicate after the treatment)” and the “B: Pseudomonas aeruginosa” value is reported as “NR (No replication)”. Besides, in test [1], the “E: Staphylococcus aureus MU500 (no irradiation), replication” value is “R (Bacteria can replicate after the treatment)” and the “F: Staphylococcus aureus MU500” value is “R (Bacteria can replicate after the treatment)”.

With `COc1c(N2CCNC(C)C2)c(F)cc2c(=O)c(C(=O)O)cn(C3CC3)c12` (stereo not shown) [Gatifloxacin], in the test on Acinetobacter, the “C: Acinetobacter (no irradiation), replication” value was “R (Bacteria can replicate after the treatment)” and the “D Acinetobacter (irradiation)” value is “NR (No replication)”. In the test on Pseudomonas aeruginosa, the “A: Pseudomonas aeruginosa (no irradiation), replication” value is “R (Bacteria can replicate after the treatment)” and the “B: Pseudomonas aeruginosa” value is given as “NR (No replication)”. Further, in test [1], the “E: Staphylococcus aureus MU500 (no irradiation), replication” value is recorded as “R (Bacteria can replicate after the treatment)” and the “F: Staphylococcus aureus MU500” value is reported as “PR (Bacteria can replicate partially)”.

Turning to `CN(C)c1ccc(O)c2c1C[C@H]1C[C@H]3[C@H](N(C)C)C(O)=C(C(N)=O)C(=O)[C@@]3(O)C(O)=C1C2=O` [Minocycline], in the test on Acinetobacter, the “C: Acinetobacter (no irradiation), replication” value is given as “R (Bacteria can replicate after the treatment)” and the “D Acinetobacter (irradiation)” value is reported as “NR (No replication)”. Further, in the test with Pseudomonas aeruginosa, the “A: Pseudomonas aeruginosa (no irradiation), replication” value is listed as “R (Bacteria can replicate after the treatment)” and the “B: Pseudomonas aeruginosa” value is recorded as “NR (No replication)”. Besides, in test [1], the “E: Staphylococcus aureus MU500 (no irradiation), replication” value is recorded as “R (Bacteria can replicate after the treatment)” and the “F: Staphylococcus aureus MU500” value is listed as “NR (No replication)”.

Take `CC1COc2c(N3CCN(C)CC3)c(F)cc3c(=O)c(C(=O)O)cn1c23` (stereo not shown) [Ofloxacin]: the CFU first run in test [2] (setting [5]) is recorded as 505 CFU; in test [2] (setting [6]), 9 CFU; in test [2] (setting [7]), 574 CFU; in test [2] (setting [8]), 144 CFU; in test [2] (setting [9]) it was 490 CFU; in test [2] (setting [10]) it was 7 CFU. For the same molecule, the CFU first run in test [2] (setting [11]) was found to be 570 CFU; in test [2] (setting [12]), 171 CFU. The CFU second run came to 351 CFU in test [2] (setting [5]); 9 CFU in test [2] (setting [6]); 391 CFU in test [2] (setting [7]); 98 CFU in test [2] (setting [8]); 350 CFU in test [2] (setting [9]); 15 CFU in test [2] (setting [10]). Moreover, the CFU second run is 363 CFU in test [2] (setting [11]) and 193 CFU in test [2] (setting [12]). In addition, the Killed first run in test [2] (setting [5]) was 12%; in test [2] (setting [6]) it was 98%; in test [2] (setting [7]) it was 0%; in test [2] (setting [8]) it was 75%; in test [2] (setting [9]) it was 15%; in test [2] (setting [10]), 99%. For the same molecule, the Killed first run in test [2] (setting [11]) is given as 1%; in test [2] (setting [12]), 70%. Also, the Killed second run in test [2] (setting [5]) was 14%; in test [2] (setting [6]), 98%; in test [2] (setting [7]) it was 4%; in test [2] (setting [8]), 76%; in test [2] (setting [9]) it was 14%; in test [2] (setting [10]), 96%. Also, the Killed second run is given as 11% in test [2] (setting [11]) and 53% in test [2] (setting [12]). For the same molecule, the “C: Acinetobacter (no irradiation), replication” value in the test on Acinetobacter is given as “R (Bacteria can replicate after the treatment)”. The “D Acinetobacter (irradiation)” value in the test on Acinetobacter is “NR (No replication)”. In addition, in the test with Pseudomonas aeruginosa, the “A: Pseudomonas aeruginosa (no irradiation), replication” value was “R (Bacteria can replicate after the treatment)”. In the test with Pseudomonas aeruginosa, the “B: Pseudomonas aeruginosa” value is listed as “NR (No replication)”. Moreover, the “E: Staphylococcus aureus MU500 (no irradiation), replication” value in test [1] was “R (Bacteria can replicate after the treatment)”. In addition, the “F: Staphylococcus aureus MU500” value in test [1] is on record as “PR (Bacteria can replicate partially)”.

As for `C[C@H]1COc2c(N3CCN(C)CC3)c(F)cc3c(=O)c(C(=O)O)cn1c23` [Levofloxacin], in the test with Acinetobacter, the “C: Acinetobacter (no irradiation), replication” value is on record as “R (Bacteria can replicate after the treatment)” and the “D Acinetobacter (irradiation)” value is on record as “NR (No replication)”. Also, in the test on Pseudomonas aeruginosa, the “A: Pseudomonas aeruginosa (no irradiation), replication” value is “R (Bacteria can replicate after the treatment)” and the “B: Pseudomonas aeruginosa” value is given as “NR (No replication)”. For the same molecule, in test [1], the “E: Staphylococcus aureus MU500 (no irradiation), replication” value is on record as “R (Bacteria can replicate after the treatment)” and the “F: Staphylococcus aureus MU500” value was “PR (Bacteria can replicate partially)”.

As to `CN(C)[C@@H]1C(O)=C(C(=O)NCNCCCC[C@H](N)C(=O)O)C(=O)[C@@]2(O)C(O)=C3C(=O)c4c(O)cccc4[C@@](C)(O)[C@H]3C[C@@H]12` [Lymecycline], in the test with Acinetobacter, the “C: Acinetobacter (no irradiation), replication” value is “R (Bacteria can replicate after the treatment)” and the “D Acinetobacter (irradiation)” value was “NR (No replication)”. Besides, in the test on Pseudomonas aeruginosa, the “A: Pseudomonas aeruginosa (no irradiation), replication” value was “R (Bacteria can replicate after the treatment)” and the “B: Pseudomonas aeruginosa” value is reported as “NR (No replication)”. In addition, in test [1], the “E: Staphylococcus aureus MU500 (no irradiation), replication” value is on record as “R (Bacteria can replicate after the treatment)” and the “F: Staphylococcus aureus MU500” value is reported as “NR (No replication)”.
